According to patent US9650339B2, “Inhibitors of histone demethylases” (Gilead Sciences, Inc., priority 2013, dated 2017):
pIC50: −log10 of the molar value.

How the values were obtained:
KDM4C (JMJD2C) = target: T1, KDM4C (JMJD2C) (Homo sapiens, UniProt Q9H3R0); assay: Histone lysine demethylase AlphaLISA assay, KDM4C; assay type: biochemical; details: read-out: KDM4C HDME Inhibition IC50
T1 sequence (Q9H3R0 1-349): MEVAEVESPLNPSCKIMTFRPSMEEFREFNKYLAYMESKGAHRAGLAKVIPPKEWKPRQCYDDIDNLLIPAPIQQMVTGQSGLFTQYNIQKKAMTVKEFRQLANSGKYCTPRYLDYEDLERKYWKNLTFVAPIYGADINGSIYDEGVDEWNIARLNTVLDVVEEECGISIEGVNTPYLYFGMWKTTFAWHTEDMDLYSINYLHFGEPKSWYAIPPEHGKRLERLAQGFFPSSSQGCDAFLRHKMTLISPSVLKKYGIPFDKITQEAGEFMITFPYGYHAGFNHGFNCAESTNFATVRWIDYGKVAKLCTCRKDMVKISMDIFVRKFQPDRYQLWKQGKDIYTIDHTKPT
Summary of the method: (§1)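 Biotinylated methylated H3 peptides (K9, K4, K27 or K36 marks) served as substrate, with 25 μM L-Asc and 10 μM α-KG. Enzymes were preincubated 10 min, then exposed to compounds (3% DMSO solutions) 10 min; product detected by AlphaLISA acceptor and streptavidin donor beads at room temperature in dark.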

KDM2B (FBXL10) = target: T2, KDM2B (FBXL10) (Homo sapiens, UniProt Q8NHM5); assay: Histone lysine demethylase AlphaLISA assay, KDM2B; assay type: biochemical; details: read-out: KDM2B HDME Inhibition IC50
T2 sequence (Q8NHM5 1-650): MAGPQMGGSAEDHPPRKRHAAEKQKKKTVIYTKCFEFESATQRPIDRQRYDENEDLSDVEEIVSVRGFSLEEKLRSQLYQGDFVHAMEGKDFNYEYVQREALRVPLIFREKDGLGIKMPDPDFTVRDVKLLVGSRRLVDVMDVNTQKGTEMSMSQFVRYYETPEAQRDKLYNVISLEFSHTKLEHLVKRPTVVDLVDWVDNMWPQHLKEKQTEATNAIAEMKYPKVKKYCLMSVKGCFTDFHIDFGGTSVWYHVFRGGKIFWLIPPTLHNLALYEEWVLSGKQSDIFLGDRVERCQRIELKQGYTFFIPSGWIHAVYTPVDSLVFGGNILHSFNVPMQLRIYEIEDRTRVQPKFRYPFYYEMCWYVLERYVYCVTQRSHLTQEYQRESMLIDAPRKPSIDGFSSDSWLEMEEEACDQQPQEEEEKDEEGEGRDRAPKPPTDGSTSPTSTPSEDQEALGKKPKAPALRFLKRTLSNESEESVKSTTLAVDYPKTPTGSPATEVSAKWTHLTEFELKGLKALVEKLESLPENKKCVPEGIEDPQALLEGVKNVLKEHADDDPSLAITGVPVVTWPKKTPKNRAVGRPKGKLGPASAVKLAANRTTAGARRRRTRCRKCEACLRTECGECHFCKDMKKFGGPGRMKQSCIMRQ
Summary of the method: as §1

Row | Compound | pIC50 (KDM4C (JMJD2C)) | pIC50 (KDM2B (FBXL10))
1 | CN(C)CCCCCNCc1cc(C=O)ccn1 [Compound 114, 2-({[5-(dimethylamino)-pentyl]amino}methyl)-pyridine-4-carbaldehyde] | 5.60 to 6.60 | < 5.60
2 | CCN(CC)CCCCN(Cc1cc(C=O)ccn1)C(=O)C(F)(F)F [Compound 115, N-[4-(diethylamino)butyl]-2,2,2-trifluoro-N-[(4-formylpyridin-2-yl)methyl]acetamide] | < 5.60 | < 5.60
3 | CCN(CC(C)(C)N(C)C)C(=O)CNCc1cc(C=O)ccn1 [Compound 118, N-[2-(dimethylamino)-2-methylpropyl]-N-ethyl-2-{[(4-formylpyridin-2-yl)methyl]amino}-acetamide] | > 6.60 | < 5.60
4 | CN(CC(=O)N1CCCCC1)Cc1cc(C=O)ccn1 [Compound 120, 2-({methyl[2-oxo-2-(piperidin-1-yl)ethyl]amino}-methyl)pyridine-4-carbaldehyde] | < 5.60 | < 5.60
